The target of data set [1] is T1, recombinant human PPARα LBD (Homo sapiens, UniProt Q07869).
T1 sequence (Q07869 239-466 limits assumed): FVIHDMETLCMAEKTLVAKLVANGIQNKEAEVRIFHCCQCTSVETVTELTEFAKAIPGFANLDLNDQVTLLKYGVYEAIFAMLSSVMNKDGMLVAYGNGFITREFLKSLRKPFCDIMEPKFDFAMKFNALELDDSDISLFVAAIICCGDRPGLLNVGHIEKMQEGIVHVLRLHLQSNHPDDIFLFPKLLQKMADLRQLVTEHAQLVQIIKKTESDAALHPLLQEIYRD
Briefly: CNBr-bead pull down assay, PPARα LBD. Type of data set: binding. The settings on record: drug conjugated CNBr beads. The procedure:
CNBr Sepharose 4B beads were prepared and activated according to the instruction. 100 mg of CNBr activated Sepharose 4B beads were incubated with drugs or DMSO for 18 h at 4 °C. The drug conjugated beads reacted to his-tagged recombinant PPAR α, β/δ, and γ protein. After 24 h of incubation, we confirmed whether recombinant protein binds to the drug conjugated bead through western blotting experiment.

For a further data set, the system named is primary microglia. Briefly: Quantitative PCR of NF-κB target genes in primary microglia. The class given is cell-based, mice. As to the method: Primary microglia culture was conducted as described in a previous study. Mice at postnatal day 3 mice were used for the preparation of primary microglia. Newborn mice pups were anesthetized in ice and then sacrificed. Isolated cortex and hippocampus were collected after removing the meninges. Brain tissues were dissociated by incubating in HBSS (Gibco, Gaithersburg, MD, USA) with trypsin (2.5%) for 15 min. Cell homogenates were then incubated in M-CSF (20 ng/mL, R&D Systems) supplemented with DMEM-F12 medium with 10% fetal bovine serum, 10% horse serum, 1% GlutaMAX (Gibco, MD, USA), and 1% penicillin/streptomycin (Welgene, Korea). After 10 days, microglia were purified through shaking at 260 rpm for 2 h.
(§1) Total RNA was isolated using TRI Reagent (Molecular Research Center, Cincinnati, OH, USA). RNA was reverse transcribed using the ImProm-II™ Reverse Transcription System (Promega) according to the manufacturer’s instructions. For detection and quantification, a StepOnePlus Real-Time PCR System (Applied Biosystems, Foster City, CA, USA) was used with FastStart Universal SYBR Green Master (Roche, Basel, Switzerland). Real-time qPCR data were analyzed using the comparative CT method. Sample sizes were 10–15 mice per group.

Data set [2] deals with 5xFAD mice. Description: Western blot and qPCR of APP and β-/γ-secretase in 5xFAD brain. Type of data set: in vivo. The settings on record: 10 mg/kg orally, 3 months. The procedure: (§2) DTMB was synthesized from Daejung Chemicals (Korea) and was dissolved in dimethyl sulfoxide (Sigma Aldrich, St. Louis, MO, USA) for cell-based experiments. To evaluate the effects of DTMB on 5xFAD mice, DTMB (10 mg/kg) and vehicle (1% carboxymethylcellulose and 10% DMSO) were orally administrated to four groups (wild-type, wild-type + DTMB, 5xFAD, and 5xFAD + DTMB) with a 6 day per week for 3 months.
Cells were lysed with lysis buffer containing 50 mM Tris (pH 7.4), 140 mM NaCl, 5 mM EDTA, and a protease inhibitor tablet, followed by sonication. Lysate protein concentrations were determined using Bradford reagents (AMERSCO, MA, USA). Proteins were resolved by sodium dodecyl sulfate (SDS) polyacrylamide gel electrophoresis, transferred to nitrocellulose membranes (Pall Corporation, New York, NY, USA), and incubated with blocking buffer (5% nonfat dry milk in TBS and 0.1% Tween 20) for 30 min. […] The integrated blot density was quantified through ImageJ.
Total RNA was isolated using TRI Reagent (Molecular Research Center, Cincinnati, OH, USA). […] For detection and quantification, a StepOnePlus Real-Time PCR System (Applied Biosystems, Foster City, CA, USA) was used with FastStart Universal SYBR Green Master (Roche, Basel, Switzerland). Real-time qPCR data were analyzed using the comparative CT method. […]
A general note: In western blotting, separated proteins are transferred to a membrane and probed.

The subject of data set [3] is 5xFAD mice. Briefly: qPCR and western blot of inflammation markers in 5xFAD brain. The class given is in vivo. The procedure: as §2
(§3) Cells were lysed with lysis buffer containing 50 mM Tris (pH 7.4), 140 mM NaCl, 5 mM EDTA, and a protease inhibitor tablet, followed by sonication. Lysate protein concentrations were determined using Bradford reagents (AMERSCO, MA, USA). Proteins were resolved by sodium dodecyl sulfate (SDS) polyacrylamide gel electrophoresis, transferred to nitrocellulose membranes (Pall Corporation, New York, NY, USA), and incubated with blocking buffer (5% nonfat dry milk in TBS and 0.1% Tween 20) for 30 min. Western blot analyses were performed using primary antibodies against NF-κB, NLRP3, ASC, nicastrin, pen2 (Cell Signaling Technology, Danvers, MA, USA), Aph1 (Invitrogen), amyloid C-terminal fragment (Santa Cruz Biotechnology, Dallas, TX, USA), and GAPDH (Bethyl Laboratories, Mongomery, TX, USA). Secondary antibodies of rabbit (Promega), rat, and goat (Bethyl Laboratories) were used, and detection was performed with SUPEX ECL reagent (Neuronex, Korea) and an ImageQuant LAS-4000 (GE Healthcare, MA, USA), according to the manufacturer’s instructions. The integrated blot density was quantified through ImageJ.
as §1
(In general: In qPCR the cycle at which signal appears reflects the starting amount.)

The subject of a further data set is BV2 cells. Description: Western blot of NF-κB, NLRP3 and ASC in BV2 cells. Type of data set: cell-based, mouse. The procedure: The BV2 mouse microglia cell line was received from Professor K. H. Suk (Kyungpook National University, Korea). BV2 cells were cultured with Dulbecco’s Modified Eagle Medium (DMEM) (Hyclone, Logan, UT, USA), containing 5% fetal bovine serum (FBS, Hyclone) and 50 μg/mL of gentamicin (Lonza, Switzerland), in a 5% CO2 incubator with a humidified atmosphere at 37 °C. RAW 264.7 macrophage cells were cultured with DMEM that contains 10% FBS and 1% penicillin/streptomycin in a 5% CO2 incubator with a humidified atmosphere at 37 °C.
as §3

Another data set deals with T2, PPARδ (Homo sapiens, UniProt Q03181).
T2 construct: pcDNA5-GAL4-PPAR LBD, pG5-luc, and Rluc vector (as control) were transfected into HEK293A cells; expressed in transfected cells; host or cells: HEK293A
T2 sequence (Q03181 211-439 limits assumed): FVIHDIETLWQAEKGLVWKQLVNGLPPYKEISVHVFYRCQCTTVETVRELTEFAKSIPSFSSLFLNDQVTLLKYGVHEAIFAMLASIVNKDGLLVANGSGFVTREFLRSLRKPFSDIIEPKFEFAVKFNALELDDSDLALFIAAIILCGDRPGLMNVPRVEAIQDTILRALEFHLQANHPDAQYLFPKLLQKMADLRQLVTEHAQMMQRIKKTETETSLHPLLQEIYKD
Description: Gal4-transactivation luciferase assay in HEK293A cells, PPARδ LBD. The class given is cell-based. The procedure:
HEK293A cells were transfected with the GAL4-reporter plasmids and pGL4.74 (Promega, Madison, WI, USA) as an internal standard through electroporation using a Neon Transfection System (Invitrogen, Carlsbad, CA, USA). All vector materials were provided by Professor Yuichiro Kanno at Toho University. Cells were treated with DTMB and each positive control compound for 24 h after overnight incubation. Cells were then harvested and resuspended in luciferase lysis buffer (Promega), followed by incubation on ice for 10 min. Cell debris was removed by centrifugation at 20,000 × g at 4 °C for 10 min, and the supernatants were used for luciferase assay. Using a dual-luciferase reporter assay system (Promega), luciferase activities were measured according to the manufacturer’s instructions. Experimental firefly luciferase activities were normalized against those of Renilla luciferase.

Data set [4] is described as follows: Body and tissue weight after 3 months of treatment. The class given is in vivo. The conditions noted are these: 3 months treatment; vehicle- vs DTMB-treated mice. The procedure: as §2
[5] abbreviates: hippocampal brain lysates, 5xFAD mice.

Data on 1 compound can be found in paper PMC9606171, “Synthetic PPAR Agonist DTMB Alleviates Alzheimer’s Disease Pathology by Inhibition of Chronic Microglial Inflammation in 5xFAD Mice” (Neurotherapeutics, 2022).

With `COc1ccc(-c2cc(=O)oc3c(C)c(OC(=O)[C@H](Cc4c[nH]c5ccccc45)NC(=O)OC(C)(C)C)ccc23)cc1` [DTMB], in data set [1] (PPARα LBD), the “binding to PPAR LBD (pull-down, western blot)” value was “binds”. Moreover, in data set [1], the “binding to PPARα LBD compared to WY14643 (pull-down)” value is listed as “stronger binding to PPARα LBD than WY14643”. The “mRNA levels of NFκB” value with primary microglia was “no change”. Besides, in the data set with primary microglia (primary microglia, mRNA), the “expression of NF-κB target genes Il-6, Il-1β, and Inos” value is reported as “decreased”; the “expression of anti-inflammatory marker (Arg-1)” value is given as “induced”. Also, the “protein level of β-secretase” value in the data set on 5xFAD mice [2] (cortex) is recorded as “slightly decreased”. Moreover, in the data set with 5xFAD mice [2] (hippocampus), the “APP protein and mRNA level” value was “neither changes”. Also, the “expression levels of proinflammatory cytokines and related enzymes (Il-1β, Il-6, and Inos)” value with 5xFAD mice [3] (5xFAD mouse brain, 10 mg/kg orally, 3 months) is recorded as “decreased”. Moreover, in the data set on 5xFAD mice [3] (setting [5]), the “level of ASC” value is on record as “not changed significantly”, the “protein level of NF-κB” value is reported as “decreased” and the “protein level of NLRP3” value is recorded as “decreased”. Moreover, in the data set with BV2 cells, the “protein level of ASC” value is “not changed”, the “protein level of NF-κB” value was “decreased” and the “protein level of NLRP3” value is recorded as “decreased”. At PPARδ (HEK293A, 24 h, various concentrations), the relative luciferase activity result is recorded as “increased luciferase activity”. In addition, on PPARδ (versus positive control), the “transactivation activity (luciferase) compared to positive control” value was “lower than the positive controls”. In addition, in data set [4], the “body or tissue weight” value is “no changes”.
